# Laboratory results published in US20250302974A1, “LECTIN-DRUG CONJUGATES” (UNICHEM LABORATORIES LIMITED, priority 2021, published 2025).
# Numbered stars: 1 amine (or outer) side, 2 acyl side, 3 side chain; on linkers, the order of the positions; unused ones are H or OH. Square brackets hold non-standard residues; d marks the D form. Peptide text beside a SMILES is read from it. * marks the point of attachment. Dolaproine = CO[C@@H]([C@@H]1CCCN1)[C@@H](C)C(=O)O; Hexanoyl(6-maleimido) = O=C1C=CC(=O)N1CCCCCC(=O)*; Dil = CC[C@H](C)[C@H](NC)[C@@H](CC(=O)O)OC; PABC = O=C(OCc1ccc(N[*:1])cc1)[*:2]; X1 = C[C@@H](N*)[C@@H](O)c1ccccc1; Cit = NC(=O)NCCC[C@H](N)C(=O)O; NMeV = CN[C@H](C(=O)O)C(C)C
# Experiments:
# [1] = tested on: human urinary bladder cancer cell line (T-24); experiment: Cytotoxicity assay, cell titer glow luminescence, 72 h; assay type: cell-based; settings: 72 h
# Description: (§1) T-24 Cell line were cultured in McCoy's 5a Medium Modified supplemented with 10% FBS and the PA-1 Cell line was cultured in EMEM Media supplemented with 10% FBS. The assay was performed by plating 5,000 cells/well and incubated at 37° C. overnight. […] Each concentration was added in triplicate and media-only wells used as a control. After incubation for 72 h cell titer glow (Promega) reagent (50 μL) was added to each well and the plates shaken for 5 mins and the luminescence was recorded. Percent viability was determined by dividing luminescence of the treated well by the non-treated well and multiplying by 100. Data was analysed using non-linear regression with a logarithmic scale.
# (§2) 5,000 cells/well were plated and incubated at 37° C. overnight. Conjugates/vehicle control dilutions were made in respective media and added to cells. Volume added: 50 uL to each well. Starting treatment concentration was 1 uM for Conjugate of formula 16 and 18, and control SEQ ID NO: 5 alone and 10% for vehicle control (1×PBS with 20% DMA) and then diluted 10-fold down for a total of 11 treatment dilutions. Each concentration was analysed in triplicates. Media-only wells was used as a control to calculate percent viability. Cell titer glow reagent (volume: 50 uL) was added to each well, the plate was shaken for 5 mins and the luminescence was recorded. Drug Treatment Time: 72 hours. Percent viability was calculated by dividing the luminescence signal obtained for each treated well by the untreated well (media-only control) and multiplying by 100.
# [2] = tested on: ovarian cancer cell line (PA-1); experiment: as above; assay type: cell-based; settings: 72 h
# Description: as §1, §2
# AGS Stomach = experiment: Cytotoxic effect by MTT assay, 48 h; settings: AGS, 48 h
# Description: (§3) Cells were treated with Test Items at various concentrations (0.0001 μM-10 μM) for 48 h. The cells corresponding to Positive Control group were treated with Doxorubicin at a concentration ranging from 0.1 μM-100 μM. The Untreated cells were used as Control. After 48 h of incubation, the effect of Test Items on cytotoxicity of cells was determined by MTT assay, the plates were taken out and 20 μl of 5 mg/m1 of MTT 3-(4,5-dimethythiazol-2-yl)-2,5-diphenyl tetrazolium bromide solution was added to all the wells. Cells were incubated for 3 h at 37° C. The supernatant was aspirated. 150 μl of DMSO was added to each well to dissolve formazan crystals. The absorbance of each well was then read at 540 nm using Synergy HT micro plate reader.
# (§4) The % Cytotoxicity was calculated using the formula:
# (§5) Where, X=Absorbance of cells treated with Test Item; R=Absorbance of Control cells (Untreated cells maintained in growth medium only).
# (§6) Selectivity Index was calculated using the formula:
# (§7) SI=IC50 in Normal cell/IC50 in cancer cell.
# (§8) Activity scores of the Selective Index values were categorized as: • Not selective (SI value ≤1) • Moderately selective (1<SI value <5) • Selective (SI value ≥5)
# HT29 Colon = experiment: Cytotoxic effect by MTT assay, 48 h; settings: for Percent cytotoxicity wrt control: 48 h
# Description: as §3, §4, §5, §6, §7, §8
# KB Cervix = experiment: Cytotoxic effect by MTT assay, 48 h; settings: for Percent cytotoxicity wrt control: KB, 48 h
# Description: as §3, §4, §5, §6, §7, §8
# MDA-MB-231 Breast = experiment: Cytotoxic effect by MTT assay, 48 h; settings: for Percent cytotoxicity wrt control: 48 h
# Description: as §3, §4, §5, §6, §7, §8
# MG-63 Bone = experiment: Cytotoxic effect by MTT assay, 48 h; settings: for Percent cytotoxicity wrt control: 48 h
# Description: as §3, §4, §5, §6, §7, §8
# PA-1 Ovary = experiment: Cytotoxic effect by MTT assay, 48 h; settings: for Percent cytotoxicity wrt control: 48 h
# Description: as §3, §4, §5, §6, §7, §8
# PANC-1 Pancreatic = experiment: Cytotoxic effect by MTT assay, 48 h; settings: for Percent cytotoxicity wrt control: 48 h
# Description: as §3, §4, §5, §6, §7, §8
# T24 Bladder = experiment: Cytotoxic effect by MTT assay, 48 h; settings: for Percent cytotoxicity wrt control: 48 h
# Description: as §3, §4, §5, §6, §7, §8
# U251 MG Brain = experiment: Cytotoxic effect by MTT assay, 48 h; settings: for Percent cytotoxicity wrt control: U251 MG, 48 h
# Description: as §3, §4, §5, §6, §7, §8
# A549 Lungs = experiment: Cytotoxic effect by MTT assay, 48 h; settings: for Percent cytotoxicity wrt control: 48 h
# Description: as §3, §4, §5, §6, §7, §8
# PBMC Normal = experiment: Cytotoxic effect by MTT assay, 48 h; settings: for Percent cytotoxicity wrt control: PBMC, 48 h
# Description: as §3, §4, §5
# PA-1 cells = experiment: Cytotoxicity (cell titer glo, 72 h) ovarian cancer cell line PA-1; assay type: cell-based; settings: Homo sapiens, PA-1 cell line
# Description: as §1
# 5,000 cells/well were plated and incubated at 37° C. overnight. Conjugates/vehicle control dilutions were made in respective media and added to cells. Volume added: 50 uL to each well. […] Each concentration was analysed in triplicates. […] Cell titer glow reagent (volume: 50 uL) was added to each well, the plate was shaken for 5 mins and the luminescence was recorded. […] Percent viability was calculated by dividing the luminescence signal obtained for each treated well by the untreated well (media-only control) and multiplying by 100.
smiles,measurement,setting,value
COc1cc2c(cc1OCCCCCOc1cc3c(cc1OC)C(=O)N1C=C(C)C[C@H]1[C@H](O)N3C(=O)OCc1ccc(NC(=O)[C@H](C)NC(=O)[C@@H](NC(=O)CCOCCOCCOCCOCCOCCOCCOCCOCCNC(=O)CCN3C(=O)C=CC3=O)C(C)C)cc1)N=C[C@@H]1CC(C)=CN1C2=O [Tesirine],IC50,[1],145 nM
same,IC50,[2],13.4 nM
same,Percent cytotoxicity wrt control,AGS Stomach; 0.0001 μM,66.4%
same,Percent cytotoxicity wrt control,AGS Stomach; 0.01 μM,77.8%
same,Percent cytotoxicity wrt control,AGS Stomach; 0.1 μM,81.3%
same,Percent cytotoxicity wrt control,AGS Stomach; 1 μM,81.3%
same,Percent cytotoxicity wrt control,AGS Stomach; 10 μM,81.6%
same,Percent cytotoxicity wrt control,"HT29 Colon; HT29, 0.0001 μM",37.4%
same,Percent cytotoxicity wrt control,"HT29 Colon; HT29, 0.001 μM",44.5%
same,Percent cytotoxicity wrt control,"HT29 Colon; HT29, 0.01 μM",47.7%
same,Percent cytotoxicity wrt control,"HT29 Colon; HT29, 0.1 μM",48.3%
same,Percent cytotoxicity wrt control,"HT29 Colon; HT29, 1 μM",49%
same,IC50,"HT29 Colon; read-out: IC50 Values, HT29 Colon, after 48 h of treatment",20 nM
same,Percent cytotoxicity wrt control,KB Cervix; 0.0001 μM,−9.5%
same,Percent cytotoxicity wrt control,KB Cervix; 0.001 μM,1%
same,Percent cytotoxicity wrt control,KB Cervix; 0.01 μM,76.2%
same,Percent cytotoxicity wrt control,KB Cervix; 0.1 μM,93.8%
same,Percent cytotoxicity wrt control,KB Cervix; 1 μM,89.1%
same,Percent cytotoxicity wrt control,KB Cervix; 10 μM,92.7%
same,IC50,"KB Cervix; read-out: IC50 Values, KB Cervix, after 48 h of treatment",6 nM
same,Percent cytotoxicity wrt control,"MDA-MB-231 Breast; MDA-MB-231, 0.001 μM",41.9%
same,Percent cytotoxicity wrt control,"MDA-MB-231 Breast; MDA-MB-231, 1 μM",69.2%
same,IC50,"MDA-MB-231 Breast; read-out: IC50 Values, MDA-MB-231 Breast, after 48 h of treatment",1.4 nM
same,Percent cytotoxicity wrt control,"MG-63 Bone; MG-63, 0.0001 μM",46.6%
same,Percent cytotoxicity wrt control,"MG-63 Bone; MG-63, 0.001 μM",69.4%
same,Percent cytotoxicity wrt control,"MG-63 Bone; MG-63, 0.01 μM",81.2%
same,Percent cytotoxicity wrt control,"MG-63 Bone; MG-63, 1 μM",82.3%
same,IC50,"MG-63 Bone; read-out: IC50 Values, MG-63 Bone, after 48 h of treatment",0.03 nM
same,Percent cytotoxicity wrt control,"PA-1 Ovary; PA-1, 0.001 μM",66.8%
same,Percent cytotoxicity wrt control,"PA-1 Ovary; PA-1, 0.01 μM",79.1%
same,Percent cytotoxicity wrt control,"PA-1 Ovary; PA-1, 1 μM",78.1%
same,Percent cytotoxicity wrt control,"PA-1 Ovary; PA-1, 10 μM",80.5%
same,IC50,"PA-1 Ovary; read-out: IC50 Values, PA-1 Ovary, after 48 h of treatment",0.00599 nM
same,Percent cytotoxicity wrt control,"PANC-1 Pancreatic; PANC-1, 0.0001 μM",46.6%
same,Percent cytotoxicity wrt control,"PANC-1 Pancreatic; PANC-1, 0.001 μM",51.1%
same,Percent cytotoxicity wrt control,"PANC-1 Pancreatic; PANC-1, 0.01 μM",58.3%
same,Percent cytotoxicity wrt control,"PANC-1 Pancreatic; PANC-1, 0.1 μM",55%
same,Percent cytotoxicity wrt control,"PANC-1 Pancreatic; PANC-1, 10 μM",71%
same,IC50,"PANC-1 Pancreatic; read-out: IC50 Values, PANC-1 Pancreatic, after 48 h of treatment",0.7 nM
same,Percent cytotoxicity wrt control,"T24 Bladder; T24, 0.0001 μM",57.5%
same,Percent cytotoxicity wrt control,"T24 Bladder; T24, 0.001 μM",60.6%
same,Percent cytotoxicity wrt control,"T24 Bladder; T24, 0.01 μM",57.5%
same,Percent cytotoxicity wrt control,"T24 Bladder; T24, 0.1 μM",61.4%
same,Percent cytotoxicity wrt control,"T24 Bladder; T24, 1 μM",62.7%
same,Percent cytotoxicity wrt control,"T24 Bladder; T24, 10 μM",80.4%
same,IC50,"T24 Bladder; read-out: IC50 Values, T24 Bladder, after 48 h of treatment",2 nM
same,Percent cytotoxicity wrt control,U251 MG Brain; 0.001 μM,26.5%
same,Percent cytotoxicity wrt control,U251 MG Brain; 0.01 μM,23.1%
same,Percent cytotoxicity wrt control,U251 MG Brain; 0.1 μM,19.2%
same,Percent cytotoxicity wrt control,U251 MG Brain; 1 μM,27.2%
same,Percent cytotoxicity wrt control,U251 MG Brain; 10 μM,60.5%
same,IC50,"U251 MG Brain; read-out: IC50 Values, U251 MG Brain, after 48 h of treatment",6820 nM
same,Percent cytotoxicity wrt control,"A549 Lungs; A549, 0.0001 μM",13.7%
same,Percent cytotoxicity wrt control,"A549 Lungs; A549, 0.1 μM",45.2%
same,Percent cytotoxicity wrt control,"A549 Lungs; A549, 1 μM",53.3%
same,Percent cytotoxicity wrt control,"A549 Lungs; A549, 10 μM",66.7%
same,IC50,"A549 Lungs; read-out: IC50 Values, A549 Lungs, after 48 h of treatment",390 nM
same,Percent cytotoxicity wrt control,PBMC Normal; 0.0001 μM,16.9%
same,Percent cytotoxicity wrt control,PBMC Normal; 0.01 μM,40.3%
same,Percent cytotoxicity wrt control,PBMC Normal; 0.1 μM,38.7%
same,Percent cytotoxicity wrt control,PBMC Normal; 1 μM,38.2%
same,IC50,"PBMC Normal; read-out: IC50 Values, PBMC Normal, after 48 h of treatment",5090 nM
CC[C@H](C)[C@@H]([C@@H](CC(=O)N1CCC[C@H]1[C@H](OC)[C@@H](C)C(=O)N[C@H](C)[C@@H](O)c1ccccc1)OC)N(C)C(=O)[C@@H](NC(=O)[C@H](C(C)C)N(C)C(=O)OCc1ccc(NC(=O)[C@H](CCCNC(N)=O)NC(=O)[C@@H](NC(=O)CCCCCN2C(=O)C=CC2=O)C(C)C)cc1)C(C)C [mc-vc-PAB-MMAE] ({Hexanoyl(6-maleimido)}-V[Cit][PABC][NMeV]V[Dil][Dolaproine]-X1),IC50,[2],647 nM
same,IC50,PA-1 cells,647 nM
